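Briefly, cells in 96-well plates were exposed to five compound concentrations for 48 h, and endpoints were estimated by linear interpolation. Here, GI50 denotes the concentration required for 50% inhibition of growth.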 Activity calls are given as the source filed them. Rule as the data show it: active = GI50 up to about 1.1 µM and inactive = higher.
How the values were obtained:
Assay in all cases: growth of human tumour cells (NCI), 48 h
NCI-H522 = test system: NCI-H522
UACC-257 = test system: UACC-257
OVCAR-5 = test system: OVCAR-5
HT-29 = test system: HT-29
SF-539 = test system: SF-539
SK-MEL-28 = test system: SK-MEL-28
NCI-H226 = test system: NCI-H226
Malme-3M = test system: Malme-3M
NCI-H460 = test system: NCI-H460
SR = test system: SR
UACC-62 = test system: UACC-62
RPMI-8226 = test system: RPMI-8226
CCRF-CEM = test system: CCRF-CEM
SK-OV-3 = test system: SK-OV-3
U-251 = test system: U-251
SNB-75 = test system: SNB-75
SW-620 = test system: SW-620
CAKI-1 = test system: CAKI-1

Measured: GI50

O=c1[nH]c(=O)n(C2CC(O)C(CO)O2)cc1C(F)(C(F)(F)F)C(F)(F)F (stereo not drawn)
inactive: NCI-H522 45.2 µM | UACC-257 > 100 µM | OVCAR-5 > 100 µM | HT-29 > 100 µM | SF-539 > 100 µM | SK-MEL-28 > 100 µM | NCI-H226 > 100 µM | Malme-3M > 100 µM | NCI-H460 > 100 µM | SR > 100 µM | UACC-62 > 100 µM | RPMI-8226 45.6 µM | CCRF-CEM > 100 µM | SK-OV-3 > 100 µM | U-251 > 100 µM | SNB-75 > 100 µM | SW-620 > 100 µM | CAKI-1 > 100 µM

CCCCN(CC)C(=O)C(=O)Cc1nc2ccc(C(=O)c3ccccc3)cc2nc1O
inactive: NCI-H522 20.3 µM | UACC-257 > 100 µM | OVCAR-5 > 100 µM | HT-29 57.5 µM | SF-539 98.9 µM | SK-MEL-28 73.3 µM | NCI-H226 > 67.9 µM | NCI-H460 13.6 µM | SR 21.6 µM | UACC-62 66.5 µM | RPMI-8226 27 µM | CCRF-CEM 27.2 µM | SK-OV-3 85.1 µM | U-251 73.1 µM | SNB-75 25.8 µM | SW-620 > 100 µM | CAKI-1 54.3 µM

COC(=O)OCC1OC(N2C(=O)NC(=O)C(I)C2N=[N+]=[N-])CC1OC(=O)OC (stereo not drawn)
inactive: NCI-H522 > 100 µM | UACC-257 > 100 µM | OVCAR-5 > 100 µM | HT-29 > 100 µM | SF-539 > 100 µM | SK-MEL-28 > 100 µM | NCI-H226 > 100 µM | Malme-3M > 100 µM | NCI-H460 > 100 µM | SR > 100 µM | UACC-62 > 100 µM | RPMI-8226 > 100 µM | CCRF-CEM > 100 µM | SK-OV-3 > 100 µM | U-251 > 100 µM | SNB-75 > 100 µM | SW-620 > 100 µM | CAKI-1 > 100 µM

Cn1c(=O)c2[nH]cnc2n(CC(=O)O)c1=O
inactive: NCI-H522 > 100 µM | OVCAR-5 > 100 µM | HT-29 > 100 µM | SF-539 > 100 µM | SK-MEL-28 > 100 µM | NCI-H226 > 100 µM | Malme-3M > 100 µM | NCI-H460 > 100 µM | SR > 100 µM | UACC-62 > 100 µM | RPMI-8226 > 100 µM | CCRF-CEM > 100 µM | SK-OV-3 > 100 µM | U-251 > 100 µM | SNB-75 > 100 µM | SW-620 > 100 µM | CAKI-1 > 100 µM

CC(C)(C)c1cc(C(O)(C(F)(F)F)C(F)(F)F)c2c(c1)C(C(F)(F)F)(C(F)(F)F)OC(C(C)(C)C)N2 (stereo not drawn)
inactive: NCI-H522 2.75 µM | UACC-257 2.81 µM | OVCAR-5 10.9 µM | HT-29 2.69 µM | SF-539 2.55 µM | SK-MEL-28 5.16 µM | NCI-H226 2.7 µM | Malme-3M 5.31 µM | NCI-H460 3.27 µM | SR 2.24 µM | UACC-62 3.56 µM | RPMI-8226 1.95 µM | SK-OV-3 1.43 µM | U-251 3.61 µM | SNB-75 2.56 µM | SW-620 3.21 µM | CAKI-1 3.12 µM

COC(=O)C(=O)C(C(=O)C=C(C)C)C(=O)C(=O)Nc1ccc(C)cc1C (stereo not drawn)
inactive: NCI-H522 > 100 µM | UACC-257 > 100 µM | OVCAR-5 > 100 µM | HT-29 > 100 µM | SF-539 > 100 µM | SK-MEL-28 > 100 µM | NCI-H226 > 100 µM | Malme-3M > 100 µM | NCI-H460 > 100 µM | SR > 100 µM | UACC-62 > 100 µM | RPMI-8226 > 100 µM | CCRF-CEM > 100 µM | SK-OV-3 > 100 µM | U-251 > 100 µM | SNB-75 > 100 µM | SW-620 > 100 µM | CAKI-1 > 100 µM

CCCNC(=S)NNC(=O)CSc1nc(-c2ccccc2)c(-c2ccccc2)[nH]1
inactive: NCI-H522 26.7 µM | UACC-257 45.6 µM | OVCAR-5 > 100 µM | HT-29 42 µM | SF-539 90.6 µM | SK-MEL-28 > 100 µM | NCI-H226 91.6 µM | Malme-3M 22.1 µM | NCI-H460 39.9 µM | SR 29.2 µM | UACC-62 > 100 µM | RPMI-8226 28.4 µM | CCRF-CEM 38.1 µM | SK-OV-3 > 100 µM | U-251 56.1 µM | SNB-75 49.1 µM | SW-620 99.3 µM | CAKI-1 33.3 µM

COC(=O)/C=C(\C(=O)OC)c1c2c3c(cc(OC)c(OC)c3c3ccccc13)CCN2C
inactive: NCI-H522 23.1 µM | UACC-257 30.5 µM | OVCAR-5 > 100 µM | HT-29 38.5 µM | SF-539 27.5 µM | SK-MEL-28 38.3 µM | NCI-H226 29.6 µM | Malme-3M 33.7 µM | NCI-H460 35.9 µM | SR 26.1 µM | UACC-62 24.2 µM | RPMI-8226 26.8 µM | CCRF-CEM 24 µM | SK-OV-3 62.4 µM | U-251 39 µM | SNB-75 66.8 µM | SW-620 35.5 µM

CC1CC[P+](c2ccccc2)(c2ccccc2)CC1
inactive: NCI-H522 40.5 µM | UACC-257 33.6 µM | OVCAR-5 > 100 µM | HT-29 79.3 µM | SF-539 78.3 µM | SK-MEL-28 > 100 µM | NCI-H226 > 100 µM | Malme-3M > 100 µM | NCI-H460 > 100 µM | SR 55.5 µM | UACC-62 58.5 µM | RPMI-8226 21.2 µM | CCRF-CEM 67.6 µM | SK-OV-3 > 100 µM | U-251 30.5 µM | SNB-75 62.4 µM | SW-620 > 100 µM

CC(C)CC12CC3CCC(CNC1=O)C32C (stereo not drawn)
inactive: NCI-H522 > 100 µM | UACC-257 > 100 µM | OVCAR-5 96.8 µM | HT-29 72.9 µM | SF-539 > 100 µM | SK-MEL-28 > 100 µM | NCI-H226 > 100 µM | Malme-3M > 100 µM | NCI-H460 > 100 µM | SR 63.7 µM | UACC-62 > 100 µM | RPMI-8226 49.9 µM | CCRF-CEM 35.5 µM | SK-OV-3 > 100 µM | U-251 > 100 µM | SNB-75 > 100 µM | SW-620 > 100 µM | CAKI-1 > 100 µM

COc1ccc(/C=C/c2cc(OC)cc(OC)c2)cc1 [TRISMETHOXYRESVERATROL]
inactive: NCI-H522 2.68 µM | UACC-257 4.62 µM | OVCAR-5 14 µM | HT-29 3.88 µM | SF-539 3.54 µM | SK-MEL-28 3.82 µM | NCI-H226 5.43 µM | Malme-3M 6.12 µM | NCI-H460 3.73 µM | SR 4.24 µM | UACC-62 3.56 µM | RPMI-8226 3.56 µM | CCRF-CEM 3.97 µM | SK-OV-3 4.14 µM | U-251 4.06 µM | SNB-75 4.82 µM | SW-620 4.98 µM | CAKI-1 4.6 µM

Source: ChEMBL document CHEMBL1201862, “PubChem BioAssay data set” (2004)
